Results from patent US8178678B2, “Bis-quaternary ammonium salts and methods for modulating neuronal nicotinic acetylcholine receptors” (University of Kentucky Research Foundation, priority 2006, dated 2012).

Tests used:
[1] = biological target: T1, Rat Striatal Nicotinic Receptors ([^3H]MLA binding sites; α7) (Rattus norvegicus, UniProt Q05941); assay: Inhibition of [^3H]MLA (methyllycaconitine) binding; details: 100 nM analog; [^3H]MLA; nonspecific S-nicotine; rat brain membranes; read-out: [^3H]MLA binding, % inhibition
T1 construct: Whole brain, excluding cortex and cerebellum, was homogenized in 20 vol of ice-cold buffer; from tissue; host or cells: rat brain membranes (whole brain excluding cortex and cerebellum)
Method: Homogenate was centrifuged (25,000 g, 15 min, 4° C). Pellets were resuspended in 20 vol buffer and incubated at 37° C., for 10 min, cooled to 4° C. and centrifuged (25,000 g, 15 min, 4° C.). Pellets were resuspended and centrifuged using the same conditions. […] Upon use, final pellets were resuspended in 20 vol assay buffer. Samples (250 μl) contained 100-140 μg of membrane protein, 3 nM [^3H]-S-nicotine or 3 nM [^3H]-methyllycaconitine (MLA), and bis-quaternary ammonium analog (100 nM) in assay buffer containing 50 mM Tris. Control was in the absence of analog. In [^3H]-S-nicotine and [^3H]-methyllycaconitine binding assays, nonspecific binding was determined in the presence of 10 μM cytisine and 10 μM S-nicotine, respectively. Incubations proceeded for 60 min at room temperature using 96-well plates and were terminated by harvesting on Unifilter-96 GF/B filter plates presoaked in 0.5% polyethylenimine, using a Packard FilterMate harvester. After washing 5 times with 350 μl ice-cold assay buffer, filter plates were dried (60 min, 4° C.), bottom-sealed, and filled with Packard's MicroScint 20 cocktail (40 μl/well). After 60 min, filter plates were top-sealed, and radioactivity determined using a Packard TopCount. Protein concentrations were determined using the Bradford dye-binding procedure bovine serum albumin as the standard. […]

[2] = biological target: T2, Rat Striatal Nicotinic Receptors ([^3H]NIC binding sites; α4β2) (Rattus norvegicus, UniProt P09483+P12390); assay: Inhibition of [^3H]NIC binding; details: 1 h; 100 nM analog; 3 nM [^3H]NIC; nonspecific 10 μM cytisine; rat brain membranes
T2 construct: Whole brain, excluding cortex and cerebellum, was homogenized in 20 vol of ice-cold buffer; from tissue; host or cells: rat brain membranes (whole brain excluding cortex and cerebellum)
Method: Homogenate was centrifuged (25,000 g, 15 min, 4° C). Pellets were resuspended in 20 vol buffer and incubated at 37° C., for 10 min, cooled to 4° C. and centrifuged (25,000 g, 15 min, 4° C.). Pellets were resuspended and centrifuged using the same conditions. […] Upon use, final pellets were resuspended in 20 vol assay buffer. Samples (250 μl) contained 100-140 μg of membrane protein, 3 nM [^3H]-S-nicotine or 3 nM [^3H]-methyllycaconitine (MLA), and bis-quaternary ammonium analog (100 nM) in assay buffer containing 50 mM Tris. Control was in the absence of analog. In [^3H]-S-nicotine and [^3H]-methyllycaconitine binding assays, nonspecific binding was determined in the presence of 10 μM cytisine and 10 μM S-nicotine, respectively. Incubations proceeded for 60 min at room temperature using 96-well plates and were terminated by harvesting on Unifilter-96 GF/B filter plates presoaked in 0.5% polyethylenimine, using a Packard FilterMate harvester. After washing 5 times with 350 μl ice-cold assay buffer, filter plates were dried (60 min, 4° C.), bottom-sealed, and filled with Packard's MicroScint 20 cocktail (40 μl/well). After 60 min, filter plates were top-sealed, and radioactivity determined using a Packard TopCount. Protein concentrations were determined using the Bradford dye-binding procedure bovine serum albumin as the standard.
Specific binding in the [^3H]NIC binding assay is calculated as the difference between the total binding of 3 nM [^3H]NIC and nonspecific binding in the presence of 10 μM cold cytisine. […] Analog-induced inhibition of S-nicotine-evoked [^3H]DA release is calculated as a percent of that in the absence of the bis-quaternary ammonium analog.

T1 sequence (Q05941 23-502): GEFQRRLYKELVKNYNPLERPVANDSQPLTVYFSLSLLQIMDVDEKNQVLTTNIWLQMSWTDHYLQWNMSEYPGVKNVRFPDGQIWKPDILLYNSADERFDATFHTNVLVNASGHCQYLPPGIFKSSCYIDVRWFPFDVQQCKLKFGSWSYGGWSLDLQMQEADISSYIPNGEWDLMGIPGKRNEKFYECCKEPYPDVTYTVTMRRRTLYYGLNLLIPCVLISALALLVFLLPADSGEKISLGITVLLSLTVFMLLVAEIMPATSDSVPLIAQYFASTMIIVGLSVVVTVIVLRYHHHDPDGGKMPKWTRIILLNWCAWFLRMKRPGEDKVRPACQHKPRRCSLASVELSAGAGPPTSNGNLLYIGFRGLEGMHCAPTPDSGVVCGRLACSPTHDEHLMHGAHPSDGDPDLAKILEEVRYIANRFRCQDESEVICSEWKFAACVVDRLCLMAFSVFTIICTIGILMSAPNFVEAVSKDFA
T2 sequence (P09483 31-630): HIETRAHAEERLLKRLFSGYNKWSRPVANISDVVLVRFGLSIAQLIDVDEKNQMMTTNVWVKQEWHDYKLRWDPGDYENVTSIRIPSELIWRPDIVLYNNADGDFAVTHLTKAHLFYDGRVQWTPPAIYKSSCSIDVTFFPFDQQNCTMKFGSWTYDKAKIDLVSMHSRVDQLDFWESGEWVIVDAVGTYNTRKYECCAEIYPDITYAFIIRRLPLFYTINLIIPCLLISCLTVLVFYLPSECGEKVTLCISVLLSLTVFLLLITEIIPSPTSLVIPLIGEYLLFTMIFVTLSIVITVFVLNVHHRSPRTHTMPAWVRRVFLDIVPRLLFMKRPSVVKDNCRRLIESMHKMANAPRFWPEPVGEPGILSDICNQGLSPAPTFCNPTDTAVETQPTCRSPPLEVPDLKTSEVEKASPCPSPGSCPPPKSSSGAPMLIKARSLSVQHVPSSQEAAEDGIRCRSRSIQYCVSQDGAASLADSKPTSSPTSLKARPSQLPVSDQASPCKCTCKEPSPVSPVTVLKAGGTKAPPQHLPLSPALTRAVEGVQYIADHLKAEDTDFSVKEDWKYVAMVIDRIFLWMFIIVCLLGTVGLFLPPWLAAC
T2 sequence (P12390 25-500): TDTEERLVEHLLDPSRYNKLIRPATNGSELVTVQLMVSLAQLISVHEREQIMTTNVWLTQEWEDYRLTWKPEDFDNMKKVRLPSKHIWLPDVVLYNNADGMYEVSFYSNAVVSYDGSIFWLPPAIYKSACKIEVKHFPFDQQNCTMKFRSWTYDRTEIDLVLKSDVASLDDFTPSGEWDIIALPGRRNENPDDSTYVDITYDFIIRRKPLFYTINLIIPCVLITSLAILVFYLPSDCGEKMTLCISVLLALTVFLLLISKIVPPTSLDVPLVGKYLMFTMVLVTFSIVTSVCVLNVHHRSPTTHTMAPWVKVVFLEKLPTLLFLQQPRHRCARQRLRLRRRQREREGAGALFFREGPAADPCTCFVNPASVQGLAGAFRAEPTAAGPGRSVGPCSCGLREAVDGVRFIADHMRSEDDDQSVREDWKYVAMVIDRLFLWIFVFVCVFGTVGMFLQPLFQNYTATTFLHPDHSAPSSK

Structure (SMILES) | inhibition at 0.1 µM [1] [%] | inhibition at 0.1 µM [2] [%]
CCc1ccc[n+](CCCCc2ccc(CCCC[n+]3cccc(CC)c3)cc2)c1 [Example 14, N,N′-[1,4-phenylenedi-(4-butanyl)]-bis-(3-ethylpyridinium)dibromide] | 4 | 2
Cc1cccc[n+]1CCOCCOCCOCC[n+]1ccccc1C [Example 81, N,N′-{2,2′-[oxybis-(2,1-ethandiyloxy)]bis-ethyl}-bis(2-methylpyridinium)dichloride] | 17 | 8.5
OCCCc1ccc[n+](CCCc2ccc(-c3ccc(CCC[n+]4cccc(CCCO)c4)cc3)cc2)c1 [Example 74, N,N′-[(1,1′-biphenyl)-4,4′-di-(3-propanyl)]-bis-[3-(3-hydroxy-propyl)-pyridinium]dibromide] | 5.8 | 2
Cc1cc[n+](CC#Cc2ccc(-c3ccc(C#CC[n+]4ccc(C)c(C)c4)cc3)cc2)cc1C [Example 104, N,N′-[(1,1′-biphenyl)-4,4′-di-(1-propyn-3-yl)]-bis-(3,4-dimethylpyridinium)dibromide] | 16 | 19
Cc1cc[n+](CCOCCOCCOCC[n+]2ccc(C)cc2C)c(C)c1 [Example 88, N,N′-{2,2′-[oxybis-(2,1-ethandiyloxy)]bis-ethyl}-bis-(2,4-dimethylpyridinium)dichloride] | 2.9 | 0
CCCCc1ccc[n+](CCCC#Cc2cccc(C#CCCC[n+]3cccc(CCCC)c3)c2)c1 [Example 57, 1,3-bis-[5-(3-n-butyl-pyridinium)-pent-1-ynyl]-benzene dibromide] | 8.7 | 3.5
Cc1cc[n+](CCCc2ccc(-c3ccc(CCC[n+]4ccc(C)cc4C)cc3)cc2)c(C)c1 [Example 73, N,N′-[(1,1′-biphenyl)-4,4′-di-(3-propanyl)]-bis-(2,4dimethylpyridinium)dibromide] | 0.6 | 3
Cc1cc(C)c[n+](CCOCCOCCOCC[n+]2cc(C)cc(C)c2)c1 [Example 90, N,N′-{2,2′-[oxybis-(2,1-ethandiyloxy)]bis-ethyl}-bis-(3,5-dimethylpyridinium)dichloride] | 5 | 10
c1cc2c([n+](CCOCCOCCOCC[n+]3cccc4c3CCCC4)c1)CCCC2 [Example 84, N,N′-{2,2′-[oxybis-(2,1-ethandiyloxy)]bis-ethyl}-bis(5,6,7,8-tetrahydroquinolinium)dichloride] | 4.7 | 0
Cc1cc[n+](CCCCc2ccc(CCCC[n+]3ccc(C)c(C)c3)cc2)cc1C [Example 19, N,N′-[1,4-phenylenedi-(4-butanyl)]-bis-(3,4-dimethylpyridinium)dibromide] | 0 | 0
Cc1cccc[n+]1CCCc1ccc(-c2ccc(CCC[n+]3ccccc3C)cc2)cc1 [Example 79, N,N′-[(1,1′-biphenyl)-4,4′-di-(3-propanyl)]-bis-(2-methylpyridinium)dibromide] | 0 | 0
OCCCc1ccc[n+](CCOCCOCCOCC[n+]2cccc(CCCO)c2)c1 [Example 86, N,N′-{2,2′-[oxybis-(2,1-ethandiyloxy)]bis-ethyl}-bis-[3-(3-hydroxypropyl)-pyridinium]dichloride] | 8.5 | 8.2
Cc1cc(C)c[n+](CCCCc2ccc(CCCC[n+]3cc(C)cc(C)c3)cc2)c1 [Example 20, N,N′-[1,4-phenylenedi-(4-butanyl)]-bis-(3,5-dimethylpyridinium)dibromide] | 0 | 1
CCCCc1ccc[n+](CCCCCc2ccccc2CCCCC[n+]2cccc(CCCC)c2)c1 [Example 43, 1,2-bis-[5-(3-n-butyl-pyridinium)-pentyl]-benzene dibromide] | 5.5 | 0.8
Cc1cc(C)c[n+](CCCC/C=C\C=C/CCCC[n+]2cc(C)cc(C)c2)c1 [Example 9, cis-cis-N,N′-(dodeca-5,7-diene-1,12-diyl)-bis-(3,5-dimethyl-pyridinium)dibromide] | 0 | 0
Cc1cc(C)c[n+](CCCc2ccc(-c3ccc(CCC[n+]4cc(C)cc(C)c4)cc3)cc2)c1 [Example 71, N,N′-[(1,1′-biphenyl)-4,4′-di-(3-propanyl)]-bis-(3,5-dimethylpyridinium)dibromide] | 3.6 | 1.6
Cc1cc[n+](CCCC/C=C\C=C/CCCC[n+]2ccc(C)c(C)c2)cc1C [Example 8, cis-cis-N,N′-(dodeca-5,7-diene-1,12-diyl)-bis-(3,4-dimethyl-pyridinium)dibromide] | 0 | 0
Cc1cc[n+](CCCCc2ccc(CCCC[n+]3ccc(C)cc3C)cc2)c(C)c1 [Example 18, N,N′-[1,4-phenylenedi-(4-butanyl)]-bis-(2,4-dimethylpyridinium)dibromide] | 0 | 0
Cc1ccc[n+](CC#Cc2ccc(-c3ccc(C#CC[n+]4cccc(C)c4)cc3)cc2)c1 [Example 102, N,N′-[(1,1′-biphenyl)-4,4′-di-(1-propyn-3-yl)]-bis-(3-methylpyridinium)dibromide] | 12 | 9.4
Cc1cc[n+](CC#Cc2ccc(-c3ccc(C#CC[n+]4ccc(C)cc4)cc3)cc2)cc1 [Example 103, N,N′-[(1,1′-biphenyl)-4,4′-di-(1-propyn-3-yl)]-bis-(4-methylpyridinium)dibromide] | 12 | 9.6
Cc1cc[n+](CCCc2ccc(-c3ccc(CCC[n+]4ccc(C)c(C)c4)cc3)cc2)cc1C [Example 72, N,N′-[(1,1′-biphenyl)-4,4′-di-(3-propanyl)]-bis-(3,4-dimethylpyridinium)dibromide] | 5.5 | 0
c1c[n+](CCOCCOCCOCC[n+]2ccc3c(c2)CCCC3)cc2c1CCCC2 [Example 85, N,N′-{2,2′-[oxybis-(2,1-ethandiyloxy)]bis-ethyl}-bis(5,6,7,8-tetrahydroisoquinolinium)dichloride] | 16 | 6
Cc1cc[n+](CCCC/C=C\C=C/CCCC[n+]2ccc(C)cc2C)c(C)c1 [Example 7, cis-cis-N,N′-(dodeca-5,7-diene-1,12-diyl)-bis-(2,4-dimethyl-pyridinium)dibromide] | 6 | 1
Cc1cc[n+](CCOCCOCCOCC[n+]2ccc(C)c(C)c2)cc1C [Example 89, N,N′-{2,2′-[oxybis-(2,1-ethandiyloxy)]bis-ethyl}-bis-(3,4-dimethylpyridinium)dichloride] | 14 | 13
c1cc(-c2ccc(CCC[n+]3ccc4c(c3)CCCC4)cc2)ccc1CCC[n+]1ccc2c(c1)CCCC2 [Example 76, N,N′-[(1,1′-biphenyl)-4,4′-di-(3-propanyl)]-bis-[5,6,7,8-tetrahydroisoquinolinium]dibromide] | 5.1 | 0
CN1CCC[C@H]1c1ccc[n+](CCOCCOCCOCC[n+]2cccc([C@@H]3CCCN3C)c2)c1 [Example 80, N,N′-{2,2′-[oxybis-(2,1-ethandiyloxy)]bis-ethyl}-bis-[3-(2′-S-1-methyl-pyrrolidin-2-yl)-pyridinium]dichloride] | 13 | 7.2
OCc1ccc[n+](CCOCCOCCOCC[n+]2cccc(CO)c2)c1 [Example 87, N,N′-{2,2′-[oxybis-(2,1-ethandiyloxy)]bis-ethyl}-bis-(3-hydroxymethylpyridinium)dichloride] | 11 | 8.2
